Measurements as given in US20200290950A1, “ALKAMIDE COMPOUNDS AND USES THEREOF” (NORTH CAROLINA STATE UNIVERSITY, priority 2017, published 2020).

Experiments:
[1] = target: T1, TRPA1 (Mus musculus, UniProt Q8BLA8); test: Calcium response of DRG neurons to mustard (allyl isothiocyanate); type: cell-based; conditions: cultured DRG neurons, fluorescence microscopy
T1 construct: The receptors TRPA1 and TRPV1 are expressed on neurons; from tissue; host or cells: primary dorsal root ganglion neurons from mice
Description: FIG. 11. Calcium response from DRG sensory neurons to alkamide of transient receptors. Mustard a TRPA1-receptor agonist activates DRG neurons in gray (A) and capsaicin, an agonist for TRPV1-receptors in the DRG neurons in red (B). Ligand A15 inhibits both TRPA1 and TRPV1 receptors activation in orange; however, 85Y a synthetic ligand only reduces the inhibition of TRPA1 but not TRPV1 receptors in blue. Total number of neurons (n)=135-145; p≤0.05.
Several different model systems were utilized for these experiments. In one model, dorsal root ganglia were obtained from mice and the neurons cultured in vitro. The neurons were then stimulated in the presence/absence of A15 and YM8-85 and the calcium responses monitored by fluorescence microscopy. In the second model, the alkamides were applied to mouse skin in mineral oil. The reactions of these mice to heat, cold, and tactile stimulation was then compared with mice that had not received treatment with A15. […] Alkamides were applied to sensitized animals and then ear swelling and bouts of scratching were monitored.
In vitro DRG neuron responses. […] Neurons were stimulated with mustard (allyl isothiocyanate) (A) an agonist for the receptor TRPA-1 or capsaicin (B) an agonist for the receptor TRPV-1 and calcium responses were measured in individual neurons by fluorescence microscopy. […]

[2] = test system: RBL-2H3 cells; test: Fluo-4 calcium assay, RBL-2H3 cells (Example 1); type: cell-based, rat
Experimental: FIGS. 3A-3H. A15 inhibits calcium influx in RBL-2H3 cells and BMMCs. RBL-2H3 cells (FIGS. 3A-3D) and BMMCs (FIGS. 3E-3H) were plated and incubated overnight prior to treatments. For DNP-BSA treatments, overnight incubation also included 1 μg/mL IgE anti-DNP. Prior to stimulation, cells were washed and loaded with the fluorescent, calcium-sensitive dye fluo-4 AM using the Fluo-4 AM Direct™ Calcium Assay Kit and fluorescence was measured on a microplate reader. Calcium influx was triggered in all experiments using either 1 μM A23187 or 50 ng/mL DNP-BSA, as indicated. Bar graphs represent the means±SEM of the Δ in RFU's at 1 min post-A23187- or DNP-BSA-stimulation from 3 independent experiments (FIGS. 3B, 3D, 3F, 3H). Statistical analysis was performed using a one-way ANOVA with Dunnett's post-hoc test, *p<0.05, **p<0.01, ***p<0.001.
FIG. 9. A15 inhibits calcium influx in RBL-2H3 cells. Prior to stimulation, cells were washed and loaded with the fluorescent, calcium-sensitive dye fluo-4 AM using the Fluo-4 AM Direct™ Calcium Assay Kit. Cells were treated with 100 μM A15 (D, E, F), 0.25% ethanol only (vehicle) (A, B, C), 1 μM A23187 (G, H, I), and 100 μM A15 in combination with 1 μM A23187 (J, K, L) as indicated. Images were acquired at 30, 60, and 120 seconds, post-stimulation. Images are representative of several experiments.
RBL-2H3, BMMC, RAW 264.7, or Jurkat cells were plated in clear-bottom, black, 96-well plates (BioExpress, Kaysville, Utah) and incubated overnight with media only or media containing IgE anti-DNP. Cells were loaded with the calcium-sensitive dye fluo-4 AM using the Fluo-4 Direct™ Calcium Assay Kit (Thermo Fisher Scientific) according to the manufacturer's instructions by incubating at 37° C. for 30 min followed by 30 min at room temperature. Prior to stimulation, baseline fluorescent readings were measured from triplicate wells in 5 s intervals for 1 min using a Synergy HT microplate reader with 485/20 nm excitation and 528/20 nm emission filters. Cells were then treated with either 1 μM A23187 or 50 ng/mL DNP-BSA prepared in calcium- and magnesium-containing or calcium- and magnesium-free HBSS with 20 mM HEPES, and fluorescence was measured in 10 s intervals for 2 min. The final concentration of ethanol was 0.25% in these assays. The average baseline fluorescence of each well was subtracted from the stimulated fluorescent values to calculate the change (Δ) in RFU's and graphed as shown.
Cells loaded with fluo-4 were treated and observed with an Axioskop 2 microscope (Zeiss, Oberkochen, Germany) using a fluorescent illuminator HXP-120 light source and images were acquired at 30, 60, or 120 sec after stimulation with a AxioCam MRc5 camera (Zeiss) and AxioVision software (Zeiss).

T1 sequence (Q8BLA8 whole entry): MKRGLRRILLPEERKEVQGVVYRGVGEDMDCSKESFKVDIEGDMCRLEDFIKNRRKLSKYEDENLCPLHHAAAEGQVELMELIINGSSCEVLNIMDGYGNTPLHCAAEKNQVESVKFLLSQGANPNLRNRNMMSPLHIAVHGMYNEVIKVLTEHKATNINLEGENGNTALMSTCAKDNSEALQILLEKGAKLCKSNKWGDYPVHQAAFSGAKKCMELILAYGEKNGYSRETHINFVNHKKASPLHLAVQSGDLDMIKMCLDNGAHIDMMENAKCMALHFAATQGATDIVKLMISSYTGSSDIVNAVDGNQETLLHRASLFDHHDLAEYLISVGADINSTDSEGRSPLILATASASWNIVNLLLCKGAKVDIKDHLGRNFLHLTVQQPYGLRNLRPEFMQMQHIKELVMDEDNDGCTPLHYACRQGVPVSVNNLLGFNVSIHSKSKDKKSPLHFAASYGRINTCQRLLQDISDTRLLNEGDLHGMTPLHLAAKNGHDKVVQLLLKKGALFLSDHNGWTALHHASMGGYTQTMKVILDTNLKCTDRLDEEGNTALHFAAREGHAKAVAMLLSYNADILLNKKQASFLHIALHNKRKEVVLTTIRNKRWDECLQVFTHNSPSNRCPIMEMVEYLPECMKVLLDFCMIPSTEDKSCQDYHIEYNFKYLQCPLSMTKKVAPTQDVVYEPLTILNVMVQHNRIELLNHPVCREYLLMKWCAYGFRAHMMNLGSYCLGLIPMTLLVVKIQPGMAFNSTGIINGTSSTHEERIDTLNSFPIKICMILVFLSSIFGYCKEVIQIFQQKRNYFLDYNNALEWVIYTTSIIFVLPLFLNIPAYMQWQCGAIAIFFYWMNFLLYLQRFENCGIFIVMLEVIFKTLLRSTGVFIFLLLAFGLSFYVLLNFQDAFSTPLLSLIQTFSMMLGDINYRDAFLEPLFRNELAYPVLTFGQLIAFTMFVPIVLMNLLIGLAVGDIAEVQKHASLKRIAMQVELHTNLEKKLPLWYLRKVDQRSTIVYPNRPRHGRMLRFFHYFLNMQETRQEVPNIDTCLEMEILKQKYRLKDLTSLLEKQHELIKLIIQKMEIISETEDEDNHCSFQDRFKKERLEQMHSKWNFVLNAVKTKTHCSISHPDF

- DRG neuron calcium response to mustard (TRPA1 agonist) [1]: inhibit
SMILES: CCCCCCC/C=C/C=C/C(=O)NCC(C)C [A15, (2E,4E)-N-Isobutyldodeca-2,4-dienamide]
- calcium response ([2]; RBL-2H3 cells treated with IgE anti-DNP and DNP-BSA): blocked the calcium response
- inhibition at 100 µM ([2]; Rattus norvegicus, 1 min, A23187-treated RBL-2H3 cells, 100 μM, 1 min post-stimulation, read-out: inhibition of rise in intracellular calcium): 83.2%
- constitutive fluorescence in unstimulated cells, compared to vehicle ([2]; unstimulated RBL-2H3 cells, 100 μM, pixel intensity, n=5 fields): did not cause a significant change in the level of constitutive fluorescence
